Reference: ChEMBL document CHEMBL1201862, “PubChem BioAssay data set” (2004)
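A five-concentration, 48-hour dose response in 96-well plates underlies each endpoint, interpolated linearly between surrounding concentrations. GI50 is the concentration that inhibits growth by half.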 Active and inactive are the calls of the source. Cut-off read from the data, not from the text of the source: active = GI50 up to about 1.1 µM and inactive = higher.

Tests used:
Assay in all cases: NCI anticancer screen, dose series, 48 h
T47D = system: T47D
NCI-H522 = system: NCI-H522
UACC-257 = system: UACC-257
UACC-62 = system: UACC-62
SN12C = system: SN12C
CAKI-1 = system: CAKI-1
BT-549 = system: BT-549
EKVX = system: EKVX
M14 = system: M14
MDA-N = system: MDA-N
NCI-H460 = system: NCI-H460
OVCAR-8 = system: OVCAR-8
A498 = system: A498
IGROV-1 = system: IGROV-1
LOX IMVI = system: LOX IMVI
SK-MEL-28 = system: SK-MEL-28
A549 = system: A549
ACHN = system: ACHN
HOP-92 = system: HOP-92
MCF7 = system: MCF7

SMILES | GI50 (T47D) | GI50 (NCI-H522) | GI50 (UACC-257) | GI50 (UACC-62) | GI50 (SN12C) | GI50 (CAKI-1) | GI50 (BT-549) | GI50 (EKVX) | GI50 (M14) | GI50 (MDA-N) | GI50 (NCI-H460) | GI50 (OVCAR-8) | GI50 (A498) | GI50 (IGROV-1) | GI50 (LOX IMVI) | GI50 (SK-MEL-28) | GI50 (A549) | GI50 (ACHN) | GI50 (HOP-92) | GI50 (MCF7)
CC(=N/NC(=S)N1CCCCC1)/C(=N\NC(=S)N1CCCCC1)c1ccccc1 | 2.12 µM (inactive) | 2.23 µM (inactive) | 1.95 µM (inactive) | 1.77 µM (inactive) | 1.82 µM (inactive) | 2.04 µM (inactive) | 1.91 µM (inactive) | 1.89 µM (inactive) | 1.99 µM (inactive) | 2.61 µM (inactive) | 1.91 µM (inactive) | 2.64 µM (inactive) | 1.3 µM (inactive) | 1.72 µM (inactive) | 3.43 µM (inactive) | 2.09 µM (inactive) | 2.03 µM (inactive) | 1.6 µM (inactive) | 1.9 µM (inactive) | 2.75 µM (inactive)
COC(=O)c1ccccc1C1CN=NC12Cc1c(C)cccc1C2=O (stereo not given) | 52.7 µM (inactive) | > 100 µM (inactive) | > 100 µM (inactive) | > 100 µM (inactive) | > 100 µM (inactive) | > 100 µM (inactive) | > 100 µM (inactive) | > 100 µM (inactive) | > 100 µM (inactive) | > 100 µM (inactive) | > 100 µM (inactive) | > 100 µM (inactive) | > 100 µM (inactive) | > 100 µM (inactive) | 45.1 µM (inactive) | > 100 µM (inactive) | 61.5 µM (inactive) | > 100 µM (inactive) | 29.1 µM (inactive) | > 100 µM (inactive)
CC1CC2(OC2C)C(=O)OC2CCN(C)C/C=C(/COC(=O)C1(C)O)C2=O (stereo not given) | > 100 µM (inactive) | > 100 µM (inactive) | > 100 µM (inactive) | > 100 µM (inactive) | > 100 µM (inactive) | > 100 µM (inactive) | > 100 µM (inactive) | > 100 µM (inactive) | > 100 µM (inactive) | > 100 µM (inactive) | > 100 µM (inactive) | > 100 µM (inactive) | > 100 µM (inactive) | > 100 µM (inactive) | > 100 µM (inactive) | > 100 µM (inactive) | > 100 µM (inactive) | > 100 µM (inactive) | > 100 µM (inactive) | > 100 µM (inactive)
Cc1oc2c(Cl)cc(O)c(Cl)c2c2cccc1-2 | 1.96 µM (inactive) | 26.4 µM (inactive) | > 100 µM (inactive) | 28.6 µM (inactive) | 25.9 µM (inactive) | 30.1 µM (inactive) | 23.6 µM (inactive) | 18.7 µM (inactive) | 28.6 µM (inactive) | 18.5 µM (inactive) | > 100 µM (inactive) | 23.6 µM (inactive) | 42 µM (inactive) | 23.1 µM (inactive) | 16.9 µM (inactive) | 14.8 µM (inactive) | 28.2 µM (inactive) | 40.6 µM (inactive) | 14.9 µM (inactive) | 9.73 µM (inactive)
CC(C)CC(NC(=O)OC(C)(C)C)C(=O)Nc1ccc(Nc2nc(F)nc(-c3c4ccccc4cn3C)n2)cc1 (stereo not given) | 40.4 µM (inactive) | 75.3 µM (inactive) | > 100 µM (inactive) | > 100 µM (inactive) | > 100 µM (inactive) | > 100 µM (inactive) | > 100 µM (inactive) | 52.7 µM (inactive) | > 100 µM (inactive) | > 100 µM (inactive) | > 75 µM (inactive) | 98.6 µM (inactive) | 98.6 µM (inactive) | > 100 µM (inactive) | > 100 µM (inactive) | > 100 µM (inactive) | > 100 µM (inactive) | 62.7 µM (inactive) | 52.2 µM (inactive) | 4.89 µM (inactive)
Cc1ccc(/C=N/Nc2ccccn2)s1 | > 57 µM (inactive) | 12.5 µM (inactive) | > 100 µM (inactive) | > 100 µM (inactive) | > 47.4 µM (inactive) | > 100 µM (inactive) | 81.3 µM (inactive) | > 72.8 µM (inactive) | > 100 µM (inactive) | > 54 µM (inactive) | > 100 µM (inactive) | > 100 µM (inactive) | > 100 µM (inactive) | > 100 µM (inactive) | > 50.4 µM (inactive) | > 100 µM (inactive) | > 100 µM (inactive) | > 100 µM (inactive) | > 100 µM (inactive) | 21.1 µM (inactive)
O=P(O)(O)CC1OC(CO)C(O)C1O (stereo not given) | > 100 µM (inactive) | > 100 µM (inactive) | > 100 µM (inactive) | > 100 µM (inactive) | > 100 µM (inactive) | > 100 µM (inactive) | > 100 µM (inactive) | > 100 µM (inactive) | > 100 µM (inactive) | > 100 µM (inactive) | > 100 µM (inactive) | > 100 µM (inactive) | > 100 µM (inactive) | > 100 µM (inactive) | > 100 µM (inactive) | > 100 µM (inactive) | > 100 µM (inactive) | > 100 µM (inactive) | > 100 µM (inactive) | > 100 µM (inactive)
O=C(O[C@@H](/C=C/c1ccccc1)P1(=O)N(Cc2ccccc2)[C@@H]2CCCC[C@H]2N1Cc1ccccc1)c1ccccc1 | 0.0984 µM (active) | 4.54 µM (inactive) | 8.75 µM (inactive) | 3.8 µM (inactive) | 3.18 µM (inactive) | 1.48 µM (inactive) | 4.91 µM (inactive) | 3.98 µM (inactive) | 3.66 µM (inactive) | 3.33 µM (inactive) | 3.53 µM (inactive) | 3.63 µM (inactive) | 5.62 µM (inactive) | 2.79 µM (inactive) | 3.15 µM (inactive) | 6.92 µM (inactive) | 3.07 µM (inactive) | 3.95 µM (inactive) | 1.71 µM (inactive) | 3.59 µM (inactive)
COc1ccc(C2CC(c3c(O)ccc4ccccc34)=NN2c2ccc([N+](=O)[O-])cc2[N+](=O)[O-])cc1OC (stereo not given) | 6.25 µM (inactive) | 2.46 µM (inactive) | 22.4 µM (inactive) | 15.3 µM (inactive) | 29.8 µM (inactive) | 16.9 µM (inactive) | 30 µM (inactive) | 14 µM (inactive) | 32.7 µM (inactive) | 28.9 µM (inactive) | 14.6 µM (inactive) | 5.32 µM (inactive) | 7.18 µM (inactive) | 13 µM (inactive) | 25.9 µM (inactive) | 34.2 µM (inactive) | 17.1 µM (inactive) | 18.5 µM (inactive) | 19.4 µM (inactive) | 17.9 µM (inactive)
C=COC(=O)N[C@H]1CCc2cc(OC)c(OC)c(OC)c2-c2ccc(SC)c(=O)cc21 | 34 µM (inactive) | < 0.01 µM (active) | 0.116 µM (active) | < 0.01 µM (active) | < 0.01 µM (active) | < 0.01 µM (active) | < 0.01 µM (active) | 8.43 µM (inactive) | < 0.01 µM (active) | < 0.01 µM (active) | < 0.01 µM (active) | 0.0133 µM (active) | < 0.01 µM (active) | < 0.01 µM (active) | < 0.01 µM (active) | 1.36 µM (inactive) | < 0.01 µM (active) | < 0.01 µM (active) | < 0.01 µM (active) | < 0.0136 µM (active)
Cc1c[nH]c(C(=O)O)c1-c1cccn1-c1ccc(Cl)cc1[N+](=O)[O-] | > 100 µM (inactive) | 72.8 µM (inactive) | > 100 µM (inactive) | > 100 µM (inactive) | > 100 µM (inactive) | > 100 µM (inactive) | > 100 µM (inactive) | > 100 µM (inactive) | > 100 µM (inactive) | > 100 µM (inactive) | > 100 µM (inactive) | 61.7 µM (inactive) | > 100 µM (inactive) | 36.3 µM (inactive) | > 100 µM (inactive) | > 100 µM (inactive) | 83.4 µM (inactive) | > 100 µM (inactive) | 56 µM (inactive) | 69.7 µM (inactive)
NS(=O)(=O)c1cc2c(cc1Cl)N=C(CCC(=O)O)NS2(=O)=O | > 100 µM (inactive) | > 100 µM (inactive) | > 100 µM (inactive) | > 100 µM (inactive) | > 100 µM (inactive) | > 100 µM (inactive) | > 100 µM (inactive) | > 100 µM (inactive) | > 100 µM (inactive) | > 100 µM (inactive) | > 100 µM (inactive) | > 100 µM (inactive) | > 100 µM (inactive) | > 100 µM (inactive) | > 100 µM (inactive) | > 100 µM (inactive) | > 100 µM (inactive) | > 100 µM (inactive) | > 100 µM (inactive) | > 100 µM (inactive)
Cc1c(Cl)cc(C(C)(C)C)c(O)c1Cc1c(C)c(Cl)cc(C(C)(C)C)c1O | 0.562 µM (active) | 0.299 µM (active) | 1.36 µM (inactive) | 1.62 µM (inactive) | 1.87 µM (inactive) | 1.32 µM (inactive) | 2.81 µM (inactive) | 1.4 µM (inactive) | 2.42 µM (inactive) | 2.18 µM (inactive) | 0.634 µM (active) | 1.49 µM (inactive) | 1.26 µM (inactive) | 1.1 µM (active) | 1.56 µM (inactive) | 2.33 µM (inactive) | 0.804 µM (active) | 1.29 µM (inactive) | 0.304 µM (active) | 1 µM (active)
O=C1O[C@H]2C3C4CCC(C4[C@@H]2I)[C@H]13 (stereo not given in full) | > 100 µM (inactive) | > 100 µM (inactive) | > 100 µM (inactive) | > 100 µM (inactive) | > 100 µM (inactive) | > 100 µM (inactive) | > 100 µM (inactive) | > 100 µM (inactive) | > 100 µM (inactive) | > 100 µM (inactive) | > 100 µM (inactive) | > 100 µM (inactive) | > 100 µM (inactive) | > 100 µM (inactive) | > 100 µM (inactive) | > 100 µM (inactive) | > 100 µM (inactive) | > 100 µM (inactive) | > 100 µM (inactive) | > 100 µM (inactive)
